Experimental findings from ChEMBL document CHEMBL5370527, “Hit-to-lead optimization of a pyrazinylpiperazine series against Leishmania infantum and Leishmania braziliensis” (Eur J Med Chem, 2023) are described below.

A short description of data set [1]: Selectivity index, ratio of CC50 for cytotoxicity against human THP-1 cells assessed as reduction in cell viability to IC50 for antileishmanial activity against […] stage of Leishmania braziliensis MHOM/BR/75/M2904 infected in human THP-1 cells assessed as parasite growth inhibition. Particulars: read-out: Ratio CC50/IC50. The format is toxicity, cell-based.

Data set [2] in a line: Selectivity index, ratio of CC50 for cytotoxicity against human THP-1 cells assessed as reduction in cell viability to IC50 for antileishmanial activity against […] stage of Leishmania infantum MHOM/BR/1974/PP75 infected in human THP-1 cells assessed as parasite growth inhibition. The format is toxicity, cell-based. Particulars: read-out: Ratio CC50/IC50.
For the next data set, the system named is Leishmania infantum. As to the kind of experiment: Antileishmanial activity against […] stage of Leishmania infantum MHOM/BR/1974/PP75 infected in human THP-1 cells assessed as parasite growth inhibition incubated for 72 hrs by microplate reader analysis. The format is functional, organism-based. Conditions: MHOM/BR/1974/PP75, THP-1, 72 h.
In another data set the test system is Leishmania braziliensis. Nature of the data set: Antileishmanial activity against […] stage of Leishmania braziliensis MHOM/BR/75/M2904 infected in human THP-1 cells assessed as parasite growth inhibition incubated for 72 hrs by microplate reader analysis. The format is functional, organism-based. Particulars: MHOM/BR/75/M2904, THP-1, 72 h.
Data set [3] can be described thus: Cytotoxicity against human THP-1 cells assessed as reduction in cell viability incubated for 72 hrs by alamarblue staining based analysis. The format is toxicity.

One may read the IC50 as the concentration that inhibits the measured activity by half. Broadly, the CC50 is the concentration that lowers cell viability or growth by half. With `O=C(c1ccc(F)cc1O)N1CCN(c2cnccn2)CC1`, the selectivity ratio was 44 in data set [1] and 80 in data set [2]. Besides, the IC50 with Leishmania infantum is 14.2 µM; in the data set on Leishmania braziliensis, 25.8 µM. In data set [3], the half-maximal cytotoxic concentration (CC50) at 72 h amounted to 1130 µM.

As to `Nc1ccc(C(=O)N2CCN(c3cnccn3)CC2)cn1`, the selectivity ratio in data set [1] was 224; in data set [2] it was 524. The IC50 in the data set with Leishmania infantum was found to be 5.1 µM; in the data set on Leishmania braziliensis, 11.9 µM. Moreover, the cytotoxic concentration (CC50) at 72 h in data set [3] was determined as 2670 µM.

Consider `O=S(=O)(c1ccc(O)cc1)N1CCN(c2cnccn2)CC1`, for which the selectivity ratio was found to be 22 in data set [1] and 16 in data set [2]. Besides, the 50% inhibitory concentration (IC50) with Leishmania infantum was determined as 157 µM; with Leishmania braziliensis it was 113 µM. For the same compound, in data set [3], the CC50 at 72 h worked out at 2510 µM.

With `O=C(c1ccc(Cl)nc1)N1CCN(c2cnccn2)CC1`, the selectivity ratio in data set [1] was found to be 35; in data set [2] it was 184. Besides, the half-maximal inhibitory concentration (IC50) was 1.9 µM with Leishmania infantum and 10.1 µM with Leishmania braziliensis. Moreover, the half-maximal cytotoxic concentration (CC50) at 72 h in data set [3] is 349 µM.

As to `N[C@@H](Cc1ccc(O)cc1)C(=O)N1CCN(c2cnccn2)CC1`, the selectivity ratio in data set [1] was 35. For the same compound, the half-maximal inhibitory concentration (IC50) in the data set on Leishmania infantum was found to be 3.3 µM; in the data set on Leishmania braziliensis, 69.2 µM. Also, the cytotoxic concentration (CC50) at 72 h in data set [3] turned out to be 2410 µM.

In the case of `O=C(c1ccc(NC2CCCC2)nc1)N1CCN(c2cnccn2)CC1`, the selectivity ratio in data set [1] stood at 2; in data set [2], 3. The IC50 with Leishmania infantum was 280 µM; in the data set on Leishmania braziliensis, 337 µM. For the same compound, in data set [3], the CC50 at 72 h came to 763 µM.

Turning to `O=C(N1CCN(c2cnccn2)CC1)n1ccnc1`, the selectivity ratio in data set [1] came out at 347; in data set [2] it was 438. Also, the IC50 with Leishmania infantum was 7.3 µM; in the data set on Leishmania braziliensis, 9.2 µM. The CC50 at 72 h in data set [3] came out at 3190 µM.

Turning to `O=C(c1ccc2cc(O)ccc2c1)N1CCN(c2cnccn2)CC1`, the results for the selectivity ratio in data set [1] and in data set [2] were 306 and 241, respectively. Besides, the figures for the IC50 in the data set with Leishmania infantum and in the data set with Leishmania braziliensis were 3.3 µM and 2.6 µM, respectively. In addition, in data set [3], the half-maximal cytotoxic concentration (CC50) at 72 h stood at 796 µM.

`N#Cc1ccc(C(=O)N2CCN(c3cnccn3)CC2)cc1`: the selectivity ratio turned out to be 57 in data set [1] and 81 in data set [2]. The 50% inhibitory concentration (IC50) in the data set with Leishmania infantum worked out at 15.9 µM; with Leishmania braziliensis it was 22.7 µM. Also, the CC50 at 72 h in data set [3] amounted to 1290 µM.

In the case of `O=C(c1ccc(O)cn1)N1CCN(c2cnccn2)CC1`, the values for the selectivity ratio in data set [1] and in data set [2] were over 37 and over 27, respectively. Moreover, the half-inhibitory concentration (IC50) in the data set with Leishmania infantum was 128 µM; in the data set on Leishmania braziliensis, 94 µM. The CC50 at 72 h in data set [3] is over 3500 µM.

For `COc1ccc(S(=O)(=O)N2CCN(c3cnccn3)CC2)cc1`, the selectivity ratio in data set [1] was over 32; in data set [2], over 24. For the same compound, the IC50 was determined as 122 µM in the data set on Leishmania infantum and 94.1 µM in the data set with Leishmania braziliensis. The CC50 at 72 h in data set [3] was over 2990 µM.

As to `Oc1ccc(N2CCN(c3cnccn3)CC2)cc1`, the figures for the selectivity ratio in data set [1] and in data set [2] were over 144 and over 89, respectively. The IC50 in the data set on Leishmania infantum is 43.6 µM; in the data set on Leishmania braziliensis it was 27.1 µM. The half-maximal cytotoxic concentration (CC50) at 72 h in data set [3] was over 3900 µM.

With `O=C(c1cc(Cl)ccc1O)N1CCN(c2cnccn2)CC1`, the selectivity ratio in data set [1] stood at 357; in data set [2], 149. Besides, the figures for the half-inhibitory concentration (IC50) in the data set with Leishmania infantum and with Leishmania braziliensis were 10.8 µM and 4.5 µM, respectively. Moreover, the 50% cytotoxic concentration (CC50) at 72 h in data set [3] came out at 1600 µM.

Take `COc1cccc(C(=O)N2CCN(c3cnccn3)CC2)c1OC`: the selectivity ratio stood at 24 in data set [1] and 18 in data set [2]. The half-inhibitory concentration (IC50) in the data set on Leishmania infantum amounted to 112 µM; with Leishmania braziliensis it was 82.1 µM. For the same compound, the 50% cytotoxic concentration (CC50) at 72 h in data set [3] is 2000 µM.

Consider `COc1ccc(C(=O)N2CCN(c3cnccn3)CC2)cc1OC`, for which the selectivity ratio turned out to be 21 in data set [1] and 13 in data set [2]. For the same compound, the half-inhibitory concentration (IC50) in the data set with Leishmania infantum came out at 55.3 µM; with Leishmania braziliensis, 33.6 µM. In addition, in data set [3], the CC50 at 72 h came to 721 µM.

As to `O=C(c1ccc(O)nc1)N1CCN(c2cnccn2)CC1`, the selectivity ratio is over 19 in data set [1] and 1460 in data set [2]. For the same compound, the IC50 in the data set with Leishmania infantum came to 176 µM; in the data set on Leishmania braziliensis it was 184 µM. Also, the CC50 at 72 h in data set [3] is over 3500 µM.

For the compound `O=C(c1ccc(N2CCCC2)nc1)N1CCN(c2cnccn2)CC1`, the figures for the selectivity ratio in data set [1] and in data set [2] were 48 and 53, respectively. Further, the half-maximal inhibitory concentration (IC50) worked out at 5.3 µM in the data set with Leishmania infantum and 5.9 µM in the data set with Leishmania braziliensis. In data set [3], the cytotoxic concentration (CC50) at 72 h worked out at 280 µM.

In the case of `COc1ccc(C(=O)N2CCN(c3cnccn3)CC2)c(OC)c1`, the values for the selectivity ratio in data set [1] and in data set [2] were 16 and 18, respectively. Besides, the IC50 in the data set with Leishmania infantum was 26.4 µM; with Leishmania braziliensis, 30.6 µM. Moreover, the 50% cytotoxic concentration (CC50) at 72 h in data set [3] turned out to be 482 µM.

With `O=C(c1ccccn1)N1CCN(c2cnccn2)CC1`, the selectivity ratio came out at 32 in data set [1] and 18 in data set [2]. Besides, the IC50 turned out to be 64.8 µM in the data set with Leishmania infantum and 34.9 µM in the data set with Leishmania braziliensis. Besides, the cytotoxic concentration (CC50) at 72 h in data set [3] was 1130 µM.

In the case of `O=C(c1cccnc1)N1CCN(c2cnccn2)CC1`, the selectivity ratio in data set [1] was over 28; in data set [2], over 26. Moreover, the IC50 turned out to be 142 µM in the data set with Leishmania infantum and 132 µM in the data set on Leishmania braziliensis. Further, the CC50 at 72 h in data set [3] is over 3710 µM.

In the case of `O=C(c1ccc(O)cc1O)N1CCN(c2cnccn2)CC1`, the selectivity ratio in data set [1] was 23; in data set [2], 20. In addition, the 50% inhibitory concentration (IC50) was determined as 21.9 µM with Leishmania infantum and 19.1 µM in the data set on Leishmania braziliensis. Besides, in data set [3], the cytotoxic concentration (CC50) at 72 h was 443 µM.

Consider `O=C(c1ccc(O)c(O)c1)N1CCN(c2cnccn2)CC1`, for which the selectivity ratio came to 151 in data set [1] and 407 in data set [2]. The values for the half-maximal inhibitory concentration (IC50) in the data set on Leishmania infantum and in the data set with Leishmania braziliensis were 3.5 µM and 9.4 µM, respectively. Also, in data set [3], the CC50 at 72 h came out at 1420 µM.

As for `O=C(c1cccc(O)c1O)N1CCN(c2cnccn2)CC1`, the selectivity ratio in data set [1] is over 16600; in data set [2] it was over 1190. For the same compound, the half-maximal inhibitory concentration (IC50) in the data set with Leishmania infantum worked out at 2.8 µM; in the data set on Leishmania braziliensis, 0.2 µM. The CC50 at 72 h in data set [3] was over 3330 µM.

Consider `COc1ccc(C(=O)N2CCN(c3cnccn3)CC2)cn1`, for which the results for the selectivity ratio in data set [1] and in data set [2] were 82 and 231, respectively. The IC50 turned out to be 6.2 µM in the data set on Leishmania infantum and 17.5 µM with Leishmania braziliensis. Moreover, in data set [3], the CC50 at 72 h was 1430 µM.

Consider `C[C@@H]1[C@H](O)[C@@H](C)/C=C/C=C/C=C/C=C/C=C/C=C/C=C/[C@H](O[C@@H]2O[C@H](C)[C@@H](O)[C@H](N)[C@@H]2O)C[C@@H]2O[C@](O)(C[C@@H](O)C[C@@H](O)[C@H](O)CC[C@@H](O)C[C@@H](O)CC(=O)O[C@H]1C)C[C@H](O)[C@H]2C(=O)O` [AMPHOTERICIN B], for which the selectivity ratio in data set [1] is 2800; in data set [2] it was 1460. Further, the concentration for half-maximal inhibition (IC50) in the data set on Leishmania infantum amounted to 0.25 µM; in the data set with Leishmania braziliensis, 0.13 µM. Besides, the CC50 at 72 h in data set [3] stood at 364 µM.

Consider `CC(C)(C)OC(=O)N[C@@H](Cc1ccc(O)cc1)C(=O)N1CCN(c2cnccn2)CC1`, for which the selectivity ratio in data set [1] stood at 108; in data set [2], 349. The values for the concentration for half-maximal inhibition (IC50) in the data set on Leishmania infantum and with Leishmania braziliensis were 2.9 µM and 9.4 µM, respectively. For the same compound, the cytotoxic concentration (CC50) at 72 h in data set [3] came out at 1010 µM.

On to `O=C(/C=C/c1ccc(O)c(O)c1)N1CCN(c2cnccn2)CC1`, for which the selectivity ratio in data set [1] is over 41; in data set [2], over 29. The results for the IC50 with Leishmania infantum and in the data set on Leishmania braziliensis were 105 µM and 74.6 µM, respectively. The CC50 at 72 h in data set [3] is over 3060 µM.
